Test system: Lactobacillus rhamnosus GG (Lactobacillus rhamnosus DSM 32550)
Test: Short-term batch-fermentation colon model (M-SHIME) with qPCR of Lactobacillus rhamnosus GG level
Assay type: cell-based
Description: A short-term batch-fermentation experiment was carried out by ProDigest, consisting of a colonic incubation of a representative dose of a selected vitamin with a representative bacterial inoculum under simulated conditions for the proximal large intestine. In the current experiment, the bacterial inocula were derived from fresh fecal samples of six different healthy adult donors. […]
In this study, the Lactobacillus rhamnosus GG equivalent Lactobacillus rhamnosus DSM 32550 (Biocare Copenhagen) was added to the colon model containing the donor samples, alone or in combination with vitamin B2 (see Table 1). After 48 h of incubation, the abundance of the added strain was analyzed using primers that are specific for Lactobacillus rhamnosus GG and its equivalent Lactobacillus rhamnosus DSM 32550. […]
qPCR was performed on putative phage tail protein gene (NCBI reference NC_013198) to monitor the level of the supplemented probiotic Lactobacillus rhamnosus GG strain within the gut microbiome, as described previously (Brandt, Alatossava (2003)-Specific identification of certain probiotic Lactobacillus rhamnosus strains with PCR primers based on phage-related sequences). Samples were analyzed from the mucus environment following 48 h of incubation. […]

## Cc1cc2nc3c(=O)[nH]c(=O)nc-3n(C[C@H](O)[C@H](O)[C@H](O)CO)c2cc1C [vitamin B2, riboflavin]
Vitamin B2 0.01667 g/L co-supplemented with L. rhamnosus GG 1*10^9 CFU, mucus environment, 48 h colonic incubation, fecal inocula of six healthy human donors, average, qPCR
  copies of the Lactobacillus rhamnosus GG specific putative phage tail protein gene relative to control (Lactobacillus rhamnosus GG alone): around three
Vitamin B2 0.01667 g/L co-supplemented with L. rhamnosus GG, 48 h, six human donors, paired t-test, p<0.05
  levels of Lactobacillus rhamnosus GG in the colon model, as compared to the respective control: significantly increased

— patent US20260199362A1, “VITAMIN B2 FOR USE IN IMPROVING GUT HEALTH” (DSM IP Assets B.V., priority 2022, published 2026)
